Results on 32 molecules are retold here after PubChem BioAssay AID434987 (Southern Research Specialized Biocontainment Screening …, 2010).

Active and inactive are the calls of the source. No rule for the calls is given here. Where only a bound is given, the exact number is not on record here.

The test deals with M. tuberculosis H37Rv growth inhibition with meropenem. Put plainly: dose response, H37Rv, with and without meropenem (AID 434987).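 Also: growth over 7 days at 37 °C before Alamar Blue read on day 9.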
Where [1] appears, read: M. tuberculosis H37Rv growth inhibition, measured here: IC50 without meropenem.
Where [2] appears, read: M. tuberculosis H37Rv growth inhibition, measured here: IC90 without meropenem.
Where [3] appears, read: measured here: IC90 with meropenem.

By IC50 is commonly meant the concentration at which inhibition is half-maximal. As usually defined, the IC90 is the point of the concentration-response curve where the effect stands at 90%. A higher IC90 goes with a need for much substance. Consider `O=C(CSc1n[nH]c(=O)n1C1CC1)c1ccc2c(c1)OCCO2`, for which the IC50 is 4.9 µM. The IC50 under setting [1] turned out to be 46.3 µM. Besides, under setting [2], the IC90 was greater than 100 µM. The molecule further had an IC90 under setting [3] greater than 100 µM.

As to `Cc1nnc(SCc2ccc(C(=O)Nc3cc(Cl)ccc3C)cc2)s1`, the IC50 is > 100 µM (inactive). Further, the IC50 under setting [1] was greater than 100 µM. Moreover, the IC90 under setting [2] is greater than 100 µM. Besides, the IC90 under setting [3] was greater than 100 µM.

With `CCOc1ccccc1C(=O)Nc1cccc(-c2ccc3nncn3n2)c1`, the IC50 was 65.3 µM (inactive). The same molecule gave a half-maximal inhibitory concentration (IC50) under setting [1] greater than 100 µM. Moreover, the IC90 under setting [2] was greater than 100 µM. Under setting [3], this molecule displayed an IC90 greater than 100 µM.

Take `O=C(CCNc1ccccc1)c1cccc([N+](=O)[O-])c1`: the IC50 was 11.7 µM. This molecule also had an IC50 under setting [1] greater than 100 µM. The molecule also came in with an IC90 under setting [2] greater than 100 µM. Under setting [3], this molecule had an IC90 of 45.8 µM.

In the case of `CC1CCN(CCOc2ccc(OCc3ccccc3)cc2)CC1`, the IC50 was 74 µM (inactive). Under setting [1], the IC50 worked out at 98.4 µM. Besides, under setting [2], the IC90 was greater than 100 µM. Also, under setting [3], the IC90 is greater than 100 µM.

Regarding `COc1ccc(/C=C2/CCCC(C(=O)C(F)(F)F)=C2O)cc1OC`, the IC50 was 34.6 µM. The molecule also came in with a half-maximal inhibitory concentration (IC50) under setting [1] of 96.9 µM. For the same molecule, under setting [2], the IC90 was greater than 100 µM. The molecule further gave an IC90 under setting [3] greater than 100 µM.

Consider `O=S1(=O)CCO[C@H]2Cc3ccccc3[C@H]2N1Cc1ccccc1`, for which the IC50 was > 100 µM (inactive). The molecule further registered an IC50 under setting [1] greater than 100 µM. The IC90 under setting [2] was greater than 100 µM. Under setting [3], the IC90 was greater than 100 µM.

On to `COCCNC(=O)COc1ccc(Oc2ccccc2)cc1`, for which the IC50 was 49.5 µM (inactive). Besides, the IC50 under setting [1] is greater than 100 µM. Under setting [2], the IC90 is greater than 100 µM. Under setting [3], this molecule yielded an IC90 greater than 100 µM.

In the case of `Cc1cc(C)c(OCC(=O)Nc2nc3ccccc3[nH]2)c(C)c1`, the IC50 is 1.22 µM. Under setting [1], this molecule displayed an IC50 of 22.1 µM. The same molecule had an IC90 under setting [2] greater than 100 µM. Moreover, under setting [3], the IC90 came to 65.2 µM.

As for `CC(=O)C1=C(C)NC(SCC(=O)c2ccccc2)=C(C#N)C1CC(C)C` (stereo not drawn), the IC50 is 51.8 µM (inactive). The same molecule displayed an IC50 under setting [1] of 88.5 µM. The IC90 under setting [2] is greater than 100 µM. Under setting [3], this molecule yielded an IC90 greater than 100 µM.

Take `CCOc1ccc2nc(SCC(=O)Nc3nonc3C)[nH]c2c1`: the IC50 is 32.8 µM. For the same molecule, the IC50 under setting [1] is greater than 100 µM. Besides, the IC90 under setting [2] was greater than 100 µM. The 90% effect concentration (IC90) under setting [3] is greater than 100 µM.

Regarding `O=C(COC(=O)c1ccc([N+](=O)[O-])s1)NCc1ccccc1`, the IC50 was 18.3 µM (inactive). Under setting [1], this molecule showed an IC50 of 34.8 µM. Besides, the IC90 under setting [2] is greater than 100 µM. Also, the IC90 under setting [3] came to 39.4 µM.

Consider `CC(=O)NC(=S)Nc1ccc(NC(=O)c2cccnc2Cl)cc1`, for which the IC50 was > 100 µM (inactive). The molecule further returned an IC50 under setting [1] greater than 100 µM. Besides, the IC90 under setting [2] is greater than 100 µM. Besides, under setting [3], the concentration for an effect of 90% (IC90) was greater than 100 µM.

`O=C(Cn1c(=O)n(CCCC(=O)NC2CCCC2)c(=O)c2ccccc21)NCCC1=CCCCC1`: the IC50 is > 100 µM (inactive). The half-inhibitory concentration (IC50) under setting [1] was greater than 100 µM. In addition, the IC90 under setting [2] is greater than 100 µM. This molecule returned an IC90 under setting [3] greater than 100 µM.

Consider `CCC1(c2ccc(Cl)cc2)NC(=S)N(c2ccc(C)cc2)N1` (stereo not drawn), for which the IC50 is > 100 µM (inactive). In addition, the IC50 under setting [1] was greater than 100 µM. Besides, the IC90 under setting [2] is greater than 100 µM. Moreover, the IC90 under setting [3] is greater than 100 µM.

On to `Cc1cc(C=C2C(=O)NC(=S)NC2=O)c(C)n1-c1ccc2c(c1)OCO2`, for which the IC50 was 12.7 µM (inactive). The molecule further registered an IC50 under setting [1] of 24.3 µM. Under setting [2], the IC90 amounted to 25.3 µM. Under setting [3], the IC90 was determined as 14.5 µM.

As for `OCCCn1c(C2CCCN2c2nc(-c3ccc(Cl)cc3)cs2)nc2cc(Cl)c(Cl)cc21` (stereo not drawn), the IC50 is > 100 µM (inactive). This molecule registered an IC50 under setting [1] greater than 100 µM. The molecule further showed an IC90 under setting [2] greater than 100 µM. Besides, under setting [3], the IC90 is greater than 100 µM.

As for `CCOc1ccc(-c2nnc(-c3ccc(OC)cc3)o2)cc1`, the concentration for half-maximal inhibition (IC50) was 4.65 µM. Moreover, under setting [1], the IC50 worked out at 35.6 µM. The same molecule came in with an IC90 under setting [2] greater than 100 µM. For the same molecule, the IC90 under setting [3] was greater than 100 µM.

As to `CN(C)S(=O)(=O)c1ccc(C(=O)/C=C/c2cccnc2)cc1`, the IC50 is 5.92 µM (inactive). The molecule further yielded an IC50 under setting [1] of 9.41 µM. Also, the IC90 under setting [2] came to 13.9 µM. Besides, under setting [3], the IC90 was determined as 12.1 µM.

Turning to `COc1cc(C(=O)NNC(=O)c2cc(-c3ccccc3)n[nH]2)cc(OC)c1C`, the IC50 was 19.7 µM. Under setting [1], this molecule came in with a concentration for half-maximal inhibition (IC50) greater than 100 µM. The molecule also came in with an IC90 under setting [2] greater than 100 µM. The molecule further returned an IC90 under setting [3] greater than 50 µM.

Take `CN(C)S(=O)(=O)c1ccc(C(=O)OCC2CC2(Cl)Cl)cc1` (stereo not drawn): the IC50 is > 100 µM (inactive). This molecule yielded an IC50 under setting [1] greater than 100 µM. The same molecule displayed an IC90 under setting [2] greater than 100 µM. In addition, the IC90 under setting [3] is greater than 100 µM.

Turning to `Cc1nc2ccccc2c(=O)n1/N=C/c1c(O)ccc2oc3c(c12)CCCC3`, the IC50 is > 100 µM (inactive). The IC50 under setting [1] is greater than 100 µM. Moreover, under setting [2], the IC90 is greater than 100 µM. Under setting [3], this molecule came in with a 90% effect concentration (IC90) greater than 100 µM.

With `CC(C)(C)c1ccc(C(=O)Oc2ccc3c(c2)OCC3=O)cc1`, the IC50 is 8.64 µM. Besides, the IC50 under setting [1] is greater than 100 µM. The IC90 under setting [2] is greater than 100 µM. The molecule also yielded a concentration for an effect of 90% (IC90) under setting [3] of 29.4 µM.

As for `COc1ccc2oc(=N)c(C(=O)Nc3ccccc3)cc2c1`, the IC50 is > 100 µM (inactive). The molecule also gave an IC50 under setting [1] greater than 100 µM. The IC90 under setting [2] is greater than 100 µM. Also, the IC90 under setting [3] was greater than 100 µM.

As to `COc1cccc(NC(=O)c2cc(-c3cccnc3)nc3c(Cl)cccc23)c1`, the IC50 is > 100 µM (inactive). The molecule further showed an IC50 under setting [1] greater than 100 µM. The same molecule yielded a concentration for an effect of 90% (IC90) under setting [2] greater than 100 µM. The molecule also came in with an IC90 under setting [3] greater than 100 µM.

Turning to `COc1cc2cnc(-c3ccsc3)c(-c3ccc(F)cc3)c2cc1OC`, the IC50 is > 100 µM (inactive). In addition, the IC50 under setting [1] was greater than 100 µM. Besides, under setting [2], the IC90 is greater than 100 µM. The molecule further displayed an IC90 under setting [3] greater than 100 µM.

Take `Cc1ccn2c(CNCCn3nc(C)cc3C)c(C(=O)N3CCCCCC3)nc2c1`: the IC50 was > 100 µM (inactive). Also, under setting [1], the half-inhibitory concentration (IC50) is greater than 100 µM. This molecule also returned an IC90 under setting [2] greater than 100 µM. Under setting [3], this molecule came in with a concentration for an effect of 90% (IC90) greater than 100 µM.

Regarding `CCCSc1nnc(NC(=O)c2sc3nc(-c4cccs4)ccc3c2N)s1`, the IC50 was 62.8 µM (inactive). The same molecule displayed an IC50 under setting [1] greater than 100 µM. This molecule also came in with a 90% effect concentration (IC90) under setting [2] greater than 100 µM. In addition, the IC90 under setting [3] is greater than 100 µM.

In the case of `COc1cc(/C=N/NC(N)=S)ccc1OC(=O)c1ccc(C)cc1`, the IC50 was > 100 µM (inactive). In addition, under setting [1], the IC50 is greater than 100 µM. In addition, the IC90 under setting [2] is greater than 100 µM. Further, the IC90 under setting [3] was greater than 100 µM.

Consider `CCOC(=O)/C(=N\Nc1ccccc1)c1csc(Nc2ccc(C)cc2)n1`, for which the IC50 is > 100 µM (inactive). Under setting [1], the concentration for half-maximal inhibition (IC50) is greater than 100 µM. For the same molecule, the IC90 under setting [2] was greater than 100 µM. Moreover, the IC90 under setting [3] is greater than 100 µM.

As to `CCn1c(-c2ccc(-c3ccccc3)cc2)c[nH]c1=S`, the IC50 is 29.1 µM (inactive). Under setting [1], this molecule yielded an IC50 of 47.8 µM. The molecule also registered an IC90 under setting [2] greater than 100 µM. This molecule came in with a 90% effect concentration (IC90) under setting [3] greater than 100 µM.

For the molecule `COc1cccc(/C=N/NC(=O)c2cnccn2)c1O`, the IC50 is 2.58 µM. The IC50 under setting [1] was found to be 44.8 µM. For the same molecule, the IC90 under setting [2] is greater than 100 µM. This molecule also had an IC90 under setting [3] of 13.9 µM.
